Results reported in paper PMC5458547, “Discovery of first-in-class reversible dual small molecule inhibitors against G9a and DNMTs in hematological malignancies” (Nature Communications, 2017).

Experiments:
Assay in all cases: KINOMEscan kinase profiling
Assay type in all cases: binding
FLT3 = molecular target: T1, FLT3 (Homo sapiens, UniProt P36888); conditions: read-out: Percent Control
T1 construct: purchased DiscoverX KINOMEscan (kinases); BPS Bioscience (epigenetic targets)
Method: (§1) Kinase Selectivity Profiling
(§2) (out of which 90 are non-mutant kinases) was performed at DiscoverRx (http://www.discoverx.com/home) using the KINOMEscan™ screening platform at a test concentration of 10 µM. Results for primary screen […]
(§3) positive control signal) / (negative control signal – positive control signal) *100, where negative control corresponds to DMSO treatment (100%) and positive control to the signal obtained with a control competitive compound (0%). […]
(§4) using the Hill equation. Each target was assayed in duplicate. […]

ERK1 = molecular target: T2, ERK1 (Homo sapiens, UniProt P27361); conditions: read-out: Percent Control
T2 construct: purchased DiscoverX KINOMEscan (kinases); BPS Bioscience (epigenetic targets)
Method: as §1, §2, §3, §4

SNARK = molecular target: T3, SNARK (Homo sapiens, UniProt Q9H093); conditions: read-out: Percent Control
T3 construct: purchased DiscoverX KINOMEscan (kinases); BPS Bioscience (epigenetic targets)
T3 sequence (Q9H093 whole entry): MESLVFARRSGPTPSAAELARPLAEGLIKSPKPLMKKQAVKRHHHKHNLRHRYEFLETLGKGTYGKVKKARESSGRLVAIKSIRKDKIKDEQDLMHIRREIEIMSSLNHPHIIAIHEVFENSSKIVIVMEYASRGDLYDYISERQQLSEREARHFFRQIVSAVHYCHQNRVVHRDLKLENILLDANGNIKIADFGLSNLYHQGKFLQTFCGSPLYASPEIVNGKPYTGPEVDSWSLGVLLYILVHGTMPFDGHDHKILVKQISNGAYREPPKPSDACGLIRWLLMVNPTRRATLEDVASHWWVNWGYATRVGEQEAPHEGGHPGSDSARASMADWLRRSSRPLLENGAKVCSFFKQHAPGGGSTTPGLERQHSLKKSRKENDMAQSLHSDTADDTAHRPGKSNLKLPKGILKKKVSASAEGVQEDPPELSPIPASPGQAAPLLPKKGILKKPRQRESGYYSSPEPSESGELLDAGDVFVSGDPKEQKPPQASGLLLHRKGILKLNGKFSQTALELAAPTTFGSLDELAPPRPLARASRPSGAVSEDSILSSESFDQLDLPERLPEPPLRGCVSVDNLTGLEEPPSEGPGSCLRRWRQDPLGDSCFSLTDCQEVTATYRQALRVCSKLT
Method: as §1, §2, §3, §4

FGFR2 = molecular target: T4, FGFR2 (Homo sapiens, UniProt P21802); conditions: read-out: Percent Control
T4 construct: purchased DiscoverX KINOMEscan (kinases); BPS Bioscience (epigenetic targets)
Method: as §1, §2, §3, §4

PLK4 = molecular target: T5, PLK4 (Homo sapiens, UniProt O00444); conditions: read-out: Percent Control
T5 construct: purchased DiscoverX KINOMEscan (kinases); BPS Bioscience (epigenetic targets)
Method: as §1, §2, §3, §4

PIK3CA = molecular target: T6, PIK3CA (Homo sapiens, UniProt P42336); conditions: read-out: Percent Control
T6 construct: purchased DiscoverX KINOMEscan (kinases); BPS Bioscience (epigenetic targets)
Method: as §1, §2, §3, §4

BMPR2 = molecular target: T7, BMPR2 (Homo sapiens, UniProt Q13873); conditions: read-out: Percent Control
T7 construct: purchased DiscoverX KINOMEscan (kinases); BPS Bioscience (epigenetic targets)
Method: as §1, §2, §3, §4

DCAMKL1 = molecular target: T8, DCAMKL1 (Homo sapiens, UniProt O15075); conditions: read-out: Percent Control
T8 construct: purchased DiscoverX KINOMEscan (kinases); BPS Bioscience (epigenetic targets)
Method: as §1, §2, §3, §4

MEK1 = molecular target: T9, MEK1 (Homo sapiens, UniProt Q02750); conditions: read-out: Percent Control
T9 construct: purchased DiscoverX KINOMEscan (kinases); BPS Bioscience (epigenetic targets)
Method: as §1, §2, §3, §4

MEK2 = molecular target: T10, MEK2 (Homo sapiens, UniProt P36507); conditions: read-out: Percent Control
T10 construct: purchased DiscoverX KINOMEscan (kinases); BPS Bioscience (epigenetic targets)
T10 sequence (P36507 whole entry): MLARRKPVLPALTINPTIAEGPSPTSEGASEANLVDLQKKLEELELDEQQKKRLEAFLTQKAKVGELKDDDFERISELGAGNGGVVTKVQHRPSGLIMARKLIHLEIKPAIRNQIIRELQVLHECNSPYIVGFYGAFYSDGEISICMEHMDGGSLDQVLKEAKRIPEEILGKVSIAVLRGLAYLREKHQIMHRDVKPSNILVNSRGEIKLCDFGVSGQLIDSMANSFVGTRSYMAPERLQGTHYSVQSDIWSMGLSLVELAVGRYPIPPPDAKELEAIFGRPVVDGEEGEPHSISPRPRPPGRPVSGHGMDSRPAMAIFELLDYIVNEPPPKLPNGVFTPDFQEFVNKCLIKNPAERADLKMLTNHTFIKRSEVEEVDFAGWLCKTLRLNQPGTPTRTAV
Method: as §1, §2, §3, §4

PIM3 = molecular target: T11, PIM3 (Homo sapiens, UniProt Q86V86); conditions: read-out: Percent Control
T11 construct: purchased DiscoverX KINOMEscan (kinases); BPS Bioscience (epigenetic targets)
Method: as §1, §2, §3, §4

CDK2 = molecular target: T12, CDK2 (Homo sapiens, UniProt P24941); conditions: read-out: Percent Control
T12 construct: purchased DiscoverX KINOMEscan (kinases); BPS Bioscience (epigenetic targets)
Method: as §1, §2, §3, §4

MAP3K4 = molecular target: T13, MAP3K4 (Homo sapiens, UniProt Q9Y6R4); conditions: read-out: Percent Control
T13 construct: purchased DiscoverX KINOMEscan (kinases); BPS Bioscience (epigenetic targets)
Method: as §1, §2, §3, §4

PDGFRB = molecular target: T14, PDGFRB (Homo sapiens, UniProt P09619); conditions: read-out: Percent Control
T14 construct: purchased DiscoverX KINOMEscan (kinases); BPS Bioscience (epigenetic targets)
Method: as §1, §2, §3, §4

PIK3CG = molecular target: T15, PIK3CG (Homo sapiens, UniProt P48736); conditions: read-out: Percent Control
T15 construct: purchased DiscoverX KINOMEscan (kinases); BPS Bioscience (epigenetic targets)
Method: as §1, §2, §3, §4

AKT2 = molecular target: T16, AKT2 (Homo sapiens, UniProt P31751); conditions: read-out: Percent Control
T16 construct: purchased DiscoverX KINOMEscan (kinases); BPS Bioscience (epigenetic targets)
Method: as §1, §2, §3, §4

SRC = molecular target: T17, SRC (Homo sapiens, UniProt P12931); conditions: read-out: Percent Control
T17 construct: purchased DiscoverX KINOMEscan (kinases); BPS Bioscience (epigenetic targets)
Method: as §1, §2, §3, §4

VEGFR2 = molecular target: T18, VEGFR2 (Homo sapiens, UniProt P35968); conditions: read-out: Percent Control
T18 construct: purchased DiscoverX KINOMEscan (kinases); BPS Bioscience (epigenetic targets)
Method: as §1, §2, §3, §4

ROCK2 = molecular target: T19, ROCK2 (Homo sapiens, UniProt O75116)
T19 construct: purchased DiscoverRx (DiscoverX), KINOMEscan screening platform
T19 sequence (O75116 whole entry): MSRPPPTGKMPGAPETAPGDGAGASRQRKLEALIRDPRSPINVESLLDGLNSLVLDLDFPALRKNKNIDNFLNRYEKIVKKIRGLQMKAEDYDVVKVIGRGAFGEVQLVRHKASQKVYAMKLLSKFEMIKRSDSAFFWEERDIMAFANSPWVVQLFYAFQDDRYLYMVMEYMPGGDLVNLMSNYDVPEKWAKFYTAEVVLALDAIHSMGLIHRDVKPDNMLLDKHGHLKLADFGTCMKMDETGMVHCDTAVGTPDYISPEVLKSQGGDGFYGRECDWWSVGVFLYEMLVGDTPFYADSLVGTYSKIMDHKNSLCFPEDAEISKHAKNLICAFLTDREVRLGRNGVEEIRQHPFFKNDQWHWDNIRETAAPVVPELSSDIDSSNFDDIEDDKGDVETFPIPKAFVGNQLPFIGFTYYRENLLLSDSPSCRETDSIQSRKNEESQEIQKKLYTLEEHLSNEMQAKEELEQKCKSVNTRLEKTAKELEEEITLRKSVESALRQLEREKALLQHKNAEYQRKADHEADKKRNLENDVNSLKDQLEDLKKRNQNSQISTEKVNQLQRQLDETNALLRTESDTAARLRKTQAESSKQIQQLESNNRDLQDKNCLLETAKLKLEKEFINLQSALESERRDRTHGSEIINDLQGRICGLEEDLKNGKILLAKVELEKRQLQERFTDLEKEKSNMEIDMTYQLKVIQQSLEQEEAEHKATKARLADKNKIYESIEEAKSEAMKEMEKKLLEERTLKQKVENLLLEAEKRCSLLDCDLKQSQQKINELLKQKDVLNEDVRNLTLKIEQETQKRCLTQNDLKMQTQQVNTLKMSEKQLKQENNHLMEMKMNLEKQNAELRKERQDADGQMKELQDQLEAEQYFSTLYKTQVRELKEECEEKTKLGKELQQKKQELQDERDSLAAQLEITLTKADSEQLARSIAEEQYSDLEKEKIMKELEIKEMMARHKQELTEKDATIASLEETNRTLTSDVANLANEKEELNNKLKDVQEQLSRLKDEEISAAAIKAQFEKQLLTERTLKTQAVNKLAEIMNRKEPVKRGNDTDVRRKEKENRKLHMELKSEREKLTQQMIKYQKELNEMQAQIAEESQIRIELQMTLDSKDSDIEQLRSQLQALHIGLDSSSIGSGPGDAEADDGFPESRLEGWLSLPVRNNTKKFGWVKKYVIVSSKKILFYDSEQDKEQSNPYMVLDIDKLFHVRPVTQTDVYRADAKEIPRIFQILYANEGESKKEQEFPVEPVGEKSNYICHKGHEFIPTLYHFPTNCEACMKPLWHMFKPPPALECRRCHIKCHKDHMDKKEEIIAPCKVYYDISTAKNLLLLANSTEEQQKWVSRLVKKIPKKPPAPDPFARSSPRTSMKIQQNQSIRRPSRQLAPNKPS
Method: as §1, §2, §3, §4

PCTK1 = molecular target: T20, PCTK1 (Homo sapiens, UniProt Q00536); conditions: read-out: Percent Control
T20 construct: purchased DiscoverX KINOMEscan (kinases); BPS Bioscience (epigenetic targets)
Method: as §1, §2, §3, §4

EPHA2 = molecular target: T21, EPHA2 (Homo sapiens, UniProt P29317); conditions: read-out: Percent Control
T21 construct: purchased DiscoverX KINOMEscan (kinases); BPS Bioscience (epigenetic targets)
Method: as §1, §2, §3, §4

PIK3C2B = molecular target: T22, PIK3C2B (Homo sapiens, UniProt O00750); conditions: read-out: Percent Control
T22 construct: purchased DiscoverX KINOMEscan (kinases); BPS Bioscience (epigenetic targets)
Method: as §1, §2, §3, §4

CDK9 = molecular target: T23, CDK9 (Homo sapiens, UniProt P50750); conditions: read-out: Percent Control
T23 construct: purchased DiscoverX KINOMEscan (kinases); BPS Bioscience (epigenetic targets)
Method: as §1, §2, §3, §4

MLK1 = molecular target: T24, MLK1 (Homo sapiens, UniProt P80192); conditions: read-out: Percent Control
T24 construct: purchased DiscoverX KINOMEscan (kinases); BPS Bioscience (epigenetic targets)
Method: as §1, §2, §3, §4

CDK3 = molecular target: T25, CDK3 (Homo sapiens, UniProt Q00526); conditions: read-out: Percent Control
T25 construct: purchased DiscoverX KINOMEscan (kinases); BPS Bioscience (epigenetic targets)
Method: as §1, §2, §3, §4

RET = molecular target: T26, RET (Homo sapiens, UniProt P07949); conditions: read-out: Percent Control
T26 construct: purchased DiscoverX KINOMEscan (kinases); BPS Bioscience (epigenetic targets)
T26 sequence (P07949 29-1114): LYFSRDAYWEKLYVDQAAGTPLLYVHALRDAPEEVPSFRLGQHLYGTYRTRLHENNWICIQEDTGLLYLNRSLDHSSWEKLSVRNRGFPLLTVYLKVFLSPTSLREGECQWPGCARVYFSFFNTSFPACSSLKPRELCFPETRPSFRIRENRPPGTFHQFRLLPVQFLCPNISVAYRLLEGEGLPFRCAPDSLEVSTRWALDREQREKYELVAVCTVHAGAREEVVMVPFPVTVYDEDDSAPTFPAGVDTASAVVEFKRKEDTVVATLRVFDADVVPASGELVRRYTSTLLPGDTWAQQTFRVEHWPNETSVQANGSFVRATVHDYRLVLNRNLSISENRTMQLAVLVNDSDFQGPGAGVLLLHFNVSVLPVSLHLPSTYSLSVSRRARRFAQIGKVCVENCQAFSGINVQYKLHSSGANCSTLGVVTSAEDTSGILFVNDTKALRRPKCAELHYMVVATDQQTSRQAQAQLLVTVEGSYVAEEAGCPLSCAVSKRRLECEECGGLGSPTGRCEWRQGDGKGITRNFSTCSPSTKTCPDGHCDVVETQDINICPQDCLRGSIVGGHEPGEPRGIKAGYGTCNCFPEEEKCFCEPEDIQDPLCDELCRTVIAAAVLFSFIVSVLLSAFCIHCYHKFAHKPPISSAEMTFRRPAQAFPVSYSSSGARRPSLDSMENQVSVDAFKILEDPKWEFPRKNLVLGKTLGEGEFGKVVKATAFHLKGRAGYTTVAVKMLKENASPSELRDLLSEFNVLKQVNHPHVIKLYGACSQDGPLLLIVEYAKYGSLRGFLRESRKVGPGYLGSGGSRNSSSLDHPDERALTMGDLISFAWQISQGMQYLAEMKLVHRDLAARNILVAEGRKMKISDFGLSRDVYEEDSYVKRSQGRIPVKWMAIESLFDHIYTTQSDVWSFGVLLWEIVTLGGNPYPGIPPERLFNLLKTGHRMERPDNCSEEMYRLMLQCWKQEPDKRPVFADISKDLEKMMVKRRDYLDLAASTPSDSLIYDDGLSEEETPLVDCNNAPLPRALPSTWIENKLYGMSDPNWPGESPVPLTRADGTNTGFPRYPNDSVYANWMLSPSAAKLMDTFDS
Method: as §1, §2, §3, §4

KIT(V559D,T670I) = molecular target: T27, KIT(V559D,T670I) (Homo sapiens, UniProt P10721, T670I/V559D); conditions: read-out: Percent Control
T27 construct: purchased DiscoverX KINOMEscan (kinases); BPS Bioscience (epigenetic targets)
Method: as §1, §2, §3, §4

INSR = molecular target: T28, INSR (Homo sapiens, UniProt P06213); conditions: read-out: Percent Control
T28 construct: purchased DiscoverX KINOMEscan (kinases); BPS Bioscience (epigenetic targets)
Method: as §1, §2, §3, §4

IGF1R = molecular target: T29, IGF1R (Homo sapiens, UniProt P08069); conditions: read-out: Percent Control
T29 construct: purchased DiscoverX KINOMEscan (kinases); BPS Bioscience (epigenetic targets)
Method: as §1, §2, §3, §4

AURKA = molecular target: T30, AURKA (Homo sapiens, UniProt O14965); conditions: read-out: Percent Control
T30 construct: purchased DiscoverX KINOMEscan (kinases); BPS Bioscience (epigenetic targets)
Method: as §1, §2, §3, §4

p38-alpha = molecular target: T31, p38-alpha (Homo sapiens, UniProt Q16539); conditions: read-out: Percent Control
T31 construct: purchased DiscoverX KINOMEscan (kinases); BPS Bioscience (epigenetic targets)
Method: as §1, §2, §3, §4

ALK = molecular target: T32, ALK (Homo sapiens, UniProt Q9UM73)
T32 construct: purchased DiscoverRx (KINOMEscan contract screen)
T32 sequence (Q9UM73 19-1620): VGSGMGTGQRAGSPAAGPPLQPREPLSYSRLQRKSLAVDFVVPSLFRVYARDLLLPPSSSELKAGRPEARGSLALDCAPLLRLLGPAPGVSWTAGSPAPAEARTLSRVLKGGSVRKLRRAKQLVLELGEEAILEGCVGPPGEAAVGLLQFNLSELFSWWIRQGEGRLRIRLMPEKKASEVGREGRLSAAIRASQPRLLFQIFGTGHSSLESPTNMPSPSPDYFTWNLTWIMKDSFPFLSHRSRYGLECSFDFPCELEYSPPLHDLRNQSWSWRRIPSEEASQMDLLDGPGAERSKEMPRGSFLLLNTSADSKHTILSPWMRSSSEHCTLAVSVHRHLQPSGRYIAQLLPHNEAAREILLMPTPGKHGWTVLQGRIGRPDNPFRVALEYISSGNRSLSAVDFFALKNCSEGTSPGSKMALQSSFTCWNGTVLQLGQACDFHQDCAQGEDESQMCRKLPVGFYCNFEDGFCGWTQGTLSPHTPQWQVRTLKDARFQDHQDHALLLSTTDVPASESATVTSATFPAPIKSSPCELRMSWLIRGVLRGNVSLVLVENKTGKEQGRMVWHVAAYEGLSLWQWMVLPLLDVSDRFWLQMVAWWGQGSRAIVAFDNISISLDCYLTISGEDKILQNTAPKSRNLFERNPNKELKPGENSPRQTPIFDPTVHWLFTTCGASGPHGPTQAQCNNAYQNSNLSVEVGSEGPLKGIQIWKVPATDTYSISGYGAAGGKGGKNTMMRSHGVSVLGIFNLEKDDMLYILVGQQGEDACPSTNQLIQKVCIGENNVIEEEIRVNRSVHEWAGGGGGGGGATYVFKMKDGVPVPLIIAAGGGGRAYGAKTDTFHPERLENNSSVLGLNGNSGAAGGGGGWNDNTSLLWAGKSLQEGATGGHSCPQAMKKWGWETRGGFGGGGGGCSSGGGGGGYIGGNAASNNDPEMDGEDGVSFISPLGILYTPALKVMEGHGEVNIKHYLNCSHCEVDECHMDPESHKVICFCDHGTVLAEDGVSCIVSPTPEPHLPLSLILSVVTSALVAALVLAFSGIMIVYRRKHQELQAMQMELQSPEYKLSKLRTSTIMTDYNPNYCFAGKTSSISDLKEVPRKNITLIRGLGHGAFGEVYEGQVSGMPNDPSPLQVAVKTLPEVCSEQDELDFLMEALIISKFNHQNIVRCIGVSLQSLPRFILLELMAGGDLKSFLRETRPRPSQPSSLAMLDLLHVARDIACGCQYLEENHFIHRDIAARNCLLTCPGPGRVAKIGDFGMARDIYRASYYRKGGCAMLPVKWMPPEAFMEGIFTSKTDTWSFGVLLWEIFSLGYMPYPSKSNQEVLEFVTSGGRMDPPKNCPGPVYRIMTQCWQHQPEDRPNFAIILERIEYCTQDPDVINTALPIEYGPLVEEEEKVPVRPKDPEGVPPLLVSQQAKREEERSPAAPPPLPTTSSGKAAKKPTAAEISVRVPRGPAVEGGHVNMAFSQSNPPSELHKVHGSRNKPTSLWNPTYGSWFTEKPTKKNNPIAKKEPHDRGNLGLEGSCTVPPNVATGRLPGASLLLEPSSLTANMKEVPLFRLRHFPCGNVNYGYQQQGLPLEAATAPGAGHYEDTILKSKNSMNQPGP
Method: as §1, §2, §3, §4

IKK-beta = molecular target: T33, IKK-beta (Homo sapiens, UniProt O14920); conditions: read-out: Percent Control
T33 construct: purchased DiscoverX KINOMEscan (kinases); BPS Bioscience (epigenetic targets)
Method: as §1, §2, §3, §4

MKNK1 = molecular target: T34, MKNK1 (Homo sapiens, UniProt Q9BUB5); conditions: read-out: Percent Control
T34 construct: purchased DiscoverX KINOMEscan (kinases); BPS Bioscience (epigenetic targets)
Method: as §1, §2, §3, §4

RAF1 = molecular target: T35, RAF1 (Homo sapiens, UniProt P04049); conditions: read-out: Percent Control
T35 construct: purchased DiscoverX KINOMEscan (kinases); BPS Bioscience (epigenetic targets)
Method: as §1, §2, §3, §4

TSSK1B = molecular target: T36, TSSK1B (Homo sapiens, UniProt Q9BXA7); conditions: read-out: Percent Control
T36 construct: purchased DiscoverX KINOMEscan (kinases); BPS Bioscience (epigenetic targets)
Method: as §1, §2, §3, §4

ABL1-nonphosphorylated = molecular target: T37, ABL1-nonphosphorylated (Homo sapiens, UniProt P00519); conditions: read-out: Percent Control
T37 construct: purchased DiscoverX KINOMEscan (kinases); BPS Bioscience (epigenetic targets)
Method: as §1, §2, §3, §4

ADCK3 = molecular target: T38, ADCK3 (Homo sapiens, UniProt Q8NI60); conditions: read-out: Percent Control
T38 construct: purchased DiscoverX KINOMEscan (kinases); BPS Bioscience (epigenetic targets)
Method: as §1, §2, §3, §4

PLK1 = molecular target: T39, PLK1 (Homo sapiens, UniProt P53350); conditions: read-out: Percent Control
T39 construct: purchased DiscoverX KINOMEscan (kinases); BPS Bioscience (epigenetic targets)
Method: as §1, §2, §3, §4

CSNK1G2 = molecular target: T40, CSNK1G2 (Homo sapiens, UniProt P78368); conditions: read-out: Percent Control
T40 construct: purchased DiscoverX KINOMEscan (kinases); BPS Bioscience (epigenetic targets)
Method: as §1, §2, §3, §4

JNK2 = molecular target: T41, JNK2 (Homo sapiens, UniProt P45984); conditions: read-out: Percent Control
T41 construct: purchased DiscoverX KINOMEscan (kinases); BPS Bioscience (epigenetic targets)
Method: as §1, §2, §3, §4

[1] = 10 µM, read-out: Percent Control

COc1cc2c(NC3CCN(C)CC3)cc(-c3ccc(C)o3)nc2cc1OCCCN1CCCC1 [CM-272, 6-methoxy-2-(5-methyl-2-furyl)-N-(1-methyl-4-piperidyl)-7-(3-pyrrolidin-1-ylpropoxy)quinolin-4-amine]
remaining binding at 10 µM (FLT3): 100%
remaining binding at 10 µM (ERK1): 100%
remaining binding at 10 µM (SNARK): 12%
remaining binding at 10 µM (FGFR2): 100%
remaining binding at 10 µM (PLK4): 80%
remaining binding at 10 µM (PIK3CA): 40%
remaining binding at 10 µM (BMPR2): 32%
remaining binding at 10 µM (DCAMKL1): 22%
remaining binding at 10 µM (MEK1): 45%
remaining binding at 10 µM (MEK2): 22%
remaining binding at 10 µM (PIM3): 81%
remaining binding at 10 µM (CDK2): 100%
remaining binding at 10 µM (MAP3K4): 93%
remaining binding at 10 µM (PDGFRB): 100%
remaining binding at 10 µM (PIK3CG): 88%
remaining binding at 10 µM (AKT2): 100%
remaining binding at 10 µM (SRC): 100%
remaining binding at 10 µM (VEGFR2): 23%
remaining binding at 10 µM (ROCK2; [1]): 0.3%
Kd (ROCK2; KINOMEscan): 1.7 µM
remaining binding at 10 µM (PCTK1): 23%
remaining binding at 10 µM (EPHA2): 100%
remaining binding at 10 µM (PIK3C2B): 61%
remaining binding at 10 µM (CDK9): 96%
remaining binding at 10 µM (MLK1): 100%
remaining binding at 10 µM (CDK3): 100%
remaining binding at 10 µM (RET): 100%
remaining binding at 10 µM (KIT(V559D,T670I)): 100%
remaining binding at 10 µM (INSR): 5.1%
remaining binding at 10 µM (IGF1R): 97%
remaining binding at 10 µM (AURKA): 71%
remaining binding at 10 µM (p38-alpha): 96%
remaining binding at 10 µM (ALK; [1]): 0.5%
Kd (ALK; KINOMEscan): 0.82 µM
remaining binding at 10 µM (IKK-beta): 13%
remaining binding at 10 µM (MKNK1): 1.4%
remaining binding at 10 µM (RAF1): 73%
remaining binding at 10 µM (TSSK1B): 100%
remaining binding at 10 µM (ABL1-nonphosphorylated): 9.4%
remaining binding at 10 µM (ADCK3): 100%
remaining binding at 10 µM (PLK1): 31%
remaining binding at 10 µM (CSNK1G2): 95%
remaining binding at 10 µM (JNK2): 34%
